Experiments:
[1] = Competitive inhibition of bovine pancreas trypsin assessed as release of para-nitroaniline using L-BAPA as substrate in presence of 4-nitrophenyl 4-guanidinobenzoate hydrochloride as inhibitor at pH 7.2 at 25 degC; parameters: species or system Bos taurus
Bos taurus = species: Bos taurus; test: Competitive inhibition of bovine pancreas trypsin assessed as release of para-nitroaniline using L-BAPA as substrate at pH 7.2 in absence of inhibitor at 25 degC
[2] = Stability of the compound assessed as bovine trypsin-mediated hydrolysis for 6 days by NMR spectroscopy; type: ADME, Bos taurus; conditions: cattle, isolated protein, 144 h; time 6 day
[3] = Competitive inhibition of bovine trypsin using Z-Arg-SBzl as substrate at pH 7.5 at 25 degC; parameters: species or system Bos taurus

| SMILES | Ki [1] | V0 (Bos taurus) | also measured |
| --- | --- | --- | --- |
| N=C(N)Nc1cccnc1 | 950 µM | – | – |
| N=C(N)Nc1ccc(I)cn1 | 15.1 µM | 4.4 10^-8M/s | – |
| COC(=O)c1ccc(NC(=N)N)nc1.O=C(O)C(F)(F)F | 1080 µM | – | Stabilty [2]: Stable |
| N=C(N)Nc1ccc(C(F)(F)F)cn1 | 218 µM | 10.3 10^-8M/s | – |
| N=C(N)Nc1ccc(Cl)cc1 | 127 µM | – | – |
| Cc1ccnc(NC(=N)N)c1 | 119 µM | – | – |
| N=C(N)Nc1ccc(F)cn1 | 144 µM | 3.79 10^-8M/s | – |
| N=C(N)Nc1ccccn1 | 83.2 µM | 8.09 10^-8M/s | – |
| N=C(N)Nc1ccc(-c2ccccc2)cn1 | 955 µM | – | – |
| Cc1cccc(NC(=N)N)n1 | 91.3 µM | – | – |
| N=C(N)c1ccccc1 [BENZAMIDINE] | – | – | Ki [3]: 35 µM |
| N=C(N)Nc1ccncn1 | 514 µM | – | – |

More lines, main results first:

| Ki [1] | SMILES | V0 (Bos taurus) | also measured |
| --- | --- | --- | --- |
| 20.5 µM | N=C(N)Nc1ccc(Br)cn1 | 3.85 10^-8M/s | – |
| 104 µM | Cc1ccc(NC(=N)N)nc1 | – | – |
| 289 µM | N=C(N)Nc1ccc(C=O)cn1 | – | – |
| 5040 µM | CC(=O)c1ccc(NC(=N)N)nc1 | – | – |
| 2550 µM | CON(C)C(=O)c1ccc(NC(=N)N)nc1 | – | – |
| 34.7 µM | N=C(N)Nc1ccc(Cl)cn1 | 8.26 10^-8M/s | – |
| > 17200 µM | CN(C)/C=N/c1ccc(Br)cn1 | – | – |
| 14 µM | Cc1cccnc1NC(=N)N | – | – |
